Laboratory results from ChEMBL document CHEMBL2385059, “3-Hydroxyquinolin-2(1H)-ones As Inhibitors of Influenza A Endonuclease” (ACS Med Chem Lett, 2013).

Key:
[1] = Inhibition of H1N1 Influenza A endonuclease after 1 hr by fluorescence assay; design: species or system Influenza A virus
MDCK = experiment: Cytotoxicity against dog MDCK cells after 4 days by MTT assay; format: cell-based; details: Canis lupus familiaris, 96 h
HEK293 = experiment: Cytotoxicity against HEK293 cells after 4 days by MTT assay; format: cell-based; details: Homo sapiens, HEK293, 96 h

Structure (SMILES)	IC50 [1] [µM]	IC50 (MDCK) [µM]	IC50 (HEK293) [µM]
O=c1[nH]c2ccc(Br)cc2cc1O	7.4	> 10	> 10
O=c1[nH]c2cccc(Br)c2cc1O	12	> 10	> 10
O=c1[nH]c2ccccc2c(-c2ccc(F)cc2)c1O	11	–	–
O=c1[nH]c2cc(-c3ccc(F)cc3)ccc2c(Br)c1O	1.1	–	–
Oc1nc2ccccc2c(Br)c1O	53	–	–
Cc1c(O)c(=O)[nH]c2ccccc12	> 100	–	–
O=c1[nH]c2cc(-c3ccc(F)cc3)ccc2c(-c2ccccc2)c1O	2	–	–
O=c1[nH]c2cccc(-c3ccc(F)cc3)c2cc1O	3.3	–	–
O=c1[nH]c2ccc(-c3ccc(F)cc3)cc2cc1O	0.5	–	–
O=c1[nH]c2cc(Br)ccc2cc1O	7.6	> 10	> 10
Cc1c(O)c(=O)[nH]c2cc(-c3ccc(F)cc3)ccc12	13	–	–
O=c1[nH]c2c(Br)cccc2cc1O	11	> 10	> 10
O=c1[nH]c2cc(-c3ccc(F)cc3)ccc2cc1O	0.5	–	–
O=c1[nH]c2ccccc2c(-c2ccccc2)c1O	> 20	–	–
O=c1[nH]c2c(-c3ccc(F)cc3)cccc2cc1O	4.7	–	–
